# Laboratory results taken from patent US20150105252A1, “SUBSTITUTED PYRAZOLES AS HERBICIDES” (E I DU PONT DE NEMOURS AND COMPANY, priority 2013, published 2015).
# Columns and labels:
# Conditions in all cases: scale 0 to 100
# bluegrass = experiment: Test D preemergence; assay type: in vivo, Poa annua
# From the text: (§1) Seeds of plant species selected from bluegrass (annual bluegrass, Poa annua), blackgrass (Alopecurus myosuroides), canarygrass (littleseed canarygrass, Phalaris minor), chickweed (common chickweed, Stellaria media), galium (catchweed bedstraw, Galium aparine), bromegrass, downy (downy bromegrass, Bromus tectorum), field poppy (Papaver rhoeas), field violet (Viola arvensis), foxtail, green (green foxtail, Setaria viridis), deadnettle (henbit deadnettle, Lamium amplexicaule), ryegrass, Italian (Italian ryegrass, Lolium multiflorum), kochia (Kochia scoparia), lambsquarters (Chenopodium album), oilseed rape (Brassica napus), pigweed (redroot pigweed, Amaranthus retroflexus), chamomile (scentless chamomile, Matricaria inodora), speedwell (bird's-eye speedwell, Veronica persica), barley, spring (spring barley, Hordeum vulgare), wheat, spring (spring wheat, Triticum aestivum), buckwheat, wild (wild buckwheat, Polygonum convolvulus), mustard, wild (wild mustard, Sinapis arvensis), oat, wild (wild oat, Avena fatua), radish, wild (wild radish, Raphanus raphanistrum), windgrass (Apera spica-venti), Russian thistle (Salsola kali), barley, winter (winter barley, Hordeum vulgare), and wheat, winter (winter wheat, Triticum aestivum) were planted into a silt loam soil and treated preemergence with test chemicals formulated in a non-phytotoxic solvent mixture which included a surfactant.
# (§2) At the same time, these species were planted in pots containing Redi-Earth® planting medium (Scotts Company, 14111 Scottslawn Road, Marysville, Ohio 43041) comprising spaghnum peat moss, vermiculite, wetting agent and starter nutrients and treated with postemergence applications of the test chemicals formulated in the same manner. Plants ranged in height from 2 to 18 cm (1- to 4-leaf stage). Treated plants and controls were maintained in a controlled growth environment for 14 to 21 days after which time all species were compared to controls and visually evaluated. Plant response ratings, summarized in Table D, are based on a scale of 0 to 100 where 0 is no effect and 100 is complete control. A dash (-) response means no test result.
# deadnettle = experiment: Test D preemergence; assay type: in vivo, Lamium amplexicaule
# From the text: as §1, §2
# oilseed rape = experiment: Test D preemergence; assay type: in vivo, Brassica napus
# From the text: as §1, §2
# wheat, spring = experiment: Test D preemergence; assay type: in vivo, Triticum aestivum
# From the text: as §1, §2
# wheat, winter = experiment: Test D preemergence; assay type: in vivo, Triticum aestivum
# From the text: as §1, §2
# mustard, wild = experiment: Test D preemergence; assay type: in vivo, Sinapis arvensis
# From the text: as §1, §2
# radish, wild = experiment: Test D preemergence; assay type: in vivo, Raphanus raphanistrum
# From the text: as §1, §2
# blackgrass = experiment: Test D postemergence; assay type: in vivo, Alopecurus myosuroides
# From the text: as §1, §2
SMILES,"Plant response rating, Bluegrass (bluegrass; 31 g ai/ha)","Plant response rating, Bluegrass (bluegrass; 62 g ai/ha)","Plant response rating, Bluegrass (bluegrass; 125 g ai/ha)","Plant response rating, Bluegrass (bluegrass; 250 g ai/ha)","Plant response rating, Deadnettle (deadnettle; 31 g ai/ha)","Plant response rating, Deadnettle (deadnettle; 62 g ai/ha)","Plant response rating, Deadnettle (deadnettle; 125 g ai/ha)","Plant response rating, Deadnettle (deadnettle; 250 g ai/ha)","Plant response rating, Oilseed Rape (oilseed rape; 62 g ai/ha)","Plant response rating, Oilseed Rape (oilseed rape; 125 g ai/ha)","Plant response rating, Oilseed Rape (oilseed rape; 250 g ai/ha)","Plant response rating, Wheat, Spring (wheat, spring; 62 g ai/ha)","Plant response rating, Wheat, Spring (wheat, spring; 125 g ai/ha)","Plant response rating, Wheat, Spring (wheat, spring; 250 g ai/ha)","Plant response rating, Wheat, Winter (wheat, winter; 62 g ai/ha)","Plant response rating, Wheat, Winter (wheat, winter; 125 g ai/ha)","Plant response rating, Wheat, Winter (wheat, winter; 250 g ai/ha)","Plant response rating, Mustard, Wild (mustard, wild; 62 g ai/ha)","Plant response rating, Mustard, Wild (mustard, wild; 125 g ai/ha)","Plant response rating, Mustard, Wild (mustard, wild; 250 g ai/ha)",further results
CCc1cc(C(=O)NC(C)C)nn1Cc1ccnc(C(F)(F)F)c1 [Compound 103],10,35,65,85,5,15,30,30,30,35,95,10,25,85,10,65,70,60,75,100,"Plant response rating, Oilseed Rape (oilseed rape; 31 g ai/ha): 25; Plant response rating, Wheat, Spring (wheat, spring; 31 g ai/ha): 0; Plant response rating, Wheat, Winter (wheat, winter; 31 g ai/ha): 0; Plant response rating, Mustard, Wild (mustard, wild; 31 g ai/ha): 55; Plant response rating, Radish, Wild (radish, wild; 31 g ai/ha): 95; Plant response rating, Radish, Wild (radish, wild; 62 g ai/ha): 100; Plant response rating, Radish, Wild (radish, wild; 125 g ai/ha): 100; Plant response rating, Radish, Wild (radish, wild; 250 g ai/ha): 100; Blackgrass plant response rating (blackgrass; Postemergence, 31 g ai/ha): 5; Blackgrass plant response rating (blackgrass; Postemergence, 125 g ai/ha): 20; Blackgrass plant response rating (blackgrass; Postemergence, 250 g ai/ha): 35; Blackgrass plant response rating (blackgrass; postemergence, 62 g ai/ha): 10"
CCCc1cc(C(=O)NCC(F)(F)F)nn1Cc1cc(C(F)(F)F)nn1C [Compound 138],20,55,90,100,85,100,100,100,40,100,100,10,35,50,30,40,60,100,100,100,"Plant response rating, Radish, Wild (radish, wild; 62 g ai/ha): 100; Plant response rating, Radish, Wild (radish, wild; 125 g ai/ha): 100; Plant response rating, Radish, Wild (radish, wild; 250 g ai/ha): 100; Blackgrass plant response rating (blackgrass; Postemergence, 31 g ai/ha): 25; Blackgrass plant response rating (blackgrass; Postemergence, 125 g ai/ha): 40; Blackgrass plant response rating (blackgrass; Postemergence, 250 g ai/ha): 75; Blackgrass plant response rating (blackgrass; postemergence, 62 g ai/ha): 25"
CCOc1cc(C(=O)NC2CC2)nn1Cc1ccnc(C(F)(F)F)c1 [Compound 189],15,50,70,85,90,100,100,100,55,80,100,10,40,80,15,65,85,100,100,100,"Plant response rating, Radish, Wild (radish, wild; 62 g ai/ha): 70; Plant response rating, Radish, Wild (radish, wild; 125 g ai/ha): 100; Plant response rating, Radish, Wild (radish, wild; 250 g ai/ha): 100; Blackgrass plant response rating (blackgrass; Postemergence, 31 g ai/ha): 10; Blackgrass plant response rating (blackgrass; Postemergence, 125 g ai/ha): 15; Blackgrass plant response rating (blackgrass; Postemergence, 250 g ai/ha): 20; Blackgrass plant response rating (blackgrass; postemergence, 62 g ai/ha): 10"
